Laboratory results as given in BindingDB's records for PubMed 7520908 (Janssen Research Foundation, 1994).
“And” between values parts separate entries of the source, which are not always exact repeats. Equal values may be shown once.

How the values were obtained:
[1] = target: 5-hydroxytryptamine receptor 1B (Rattus norvegicus, UniProt P28564)
[2] = target: T1, 5-hydroxytryptamine receptor 2C (Sus scrofa, UniProt G7ZKZ7)
T1 sequence (G7ZKZ7 whole entry): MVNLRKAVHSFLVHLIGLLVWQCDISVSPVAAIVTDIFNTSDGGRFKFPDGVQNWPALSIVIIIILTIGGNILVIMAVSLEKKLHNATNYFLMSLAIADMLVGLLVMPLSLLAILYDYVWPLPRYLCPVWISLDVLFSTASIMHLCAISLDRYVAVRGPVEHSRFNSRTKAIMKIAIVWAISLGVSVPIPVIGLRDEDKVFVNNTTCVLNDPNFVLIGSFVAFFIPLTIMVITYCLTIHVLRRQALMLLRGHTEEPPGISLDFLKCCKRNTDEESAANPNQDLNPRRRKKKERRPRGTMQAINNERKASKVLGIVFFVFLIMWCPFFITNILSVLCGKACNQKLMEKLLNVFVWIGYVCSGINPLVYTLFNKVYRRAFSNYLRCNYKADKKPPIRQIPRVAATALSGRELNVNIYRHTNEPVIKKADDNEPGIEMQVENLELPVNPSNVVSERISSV

[3] = target: D(1A) dopamine receptor (Rattus norvegicus, UniProt P18901)
[4] = target: 5-hydroxytryptamine receptor 2A (Rattus norvegicus, UniProt P14842)
[5] = target: 5-hydroxytryptamine 1D receptor (Bos taurus, UniProt Q8MI13)
[6] = target: T2, 5-hydroxytryptamine receptor 3A (Mus musculus, UniProt P23979)
T2 sequence (P23979 whole entry): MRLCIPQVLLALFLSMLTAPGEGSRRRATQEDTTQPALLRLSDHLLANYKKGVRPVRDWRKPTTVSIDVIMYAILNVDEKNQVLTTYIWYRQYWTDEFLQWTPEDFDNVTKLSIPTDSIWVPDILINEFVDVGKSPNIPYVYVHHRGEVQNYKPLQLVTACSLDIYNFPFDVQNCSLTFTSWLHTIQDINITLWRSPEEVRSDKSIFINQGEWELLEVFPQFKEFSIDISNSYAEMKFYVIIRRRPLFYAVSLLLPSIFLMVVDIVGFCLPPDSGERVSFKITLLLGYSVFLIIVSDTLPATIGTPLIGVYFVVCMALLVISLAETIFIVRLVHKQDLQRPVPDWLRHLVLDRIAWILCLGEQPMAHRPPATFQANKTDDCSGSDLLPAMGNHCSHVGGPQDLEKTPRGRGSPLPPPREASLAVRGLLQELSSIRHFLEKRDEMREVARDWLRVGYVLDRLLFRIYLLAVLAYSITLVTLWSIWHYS

[7] = target: D(3) dopamine receptor (Rattus norvegicus, UniProt P19020)
[8] = target: 5-hydroxytryptamine receptor 1B (Homo sapiens, UniProt P28222)
[9] = target: D(2) dopamine receptor (Rattus norvegicus, UniProt P61169)
Sequence of D(2) dopamine receptor (P61169 whole entry): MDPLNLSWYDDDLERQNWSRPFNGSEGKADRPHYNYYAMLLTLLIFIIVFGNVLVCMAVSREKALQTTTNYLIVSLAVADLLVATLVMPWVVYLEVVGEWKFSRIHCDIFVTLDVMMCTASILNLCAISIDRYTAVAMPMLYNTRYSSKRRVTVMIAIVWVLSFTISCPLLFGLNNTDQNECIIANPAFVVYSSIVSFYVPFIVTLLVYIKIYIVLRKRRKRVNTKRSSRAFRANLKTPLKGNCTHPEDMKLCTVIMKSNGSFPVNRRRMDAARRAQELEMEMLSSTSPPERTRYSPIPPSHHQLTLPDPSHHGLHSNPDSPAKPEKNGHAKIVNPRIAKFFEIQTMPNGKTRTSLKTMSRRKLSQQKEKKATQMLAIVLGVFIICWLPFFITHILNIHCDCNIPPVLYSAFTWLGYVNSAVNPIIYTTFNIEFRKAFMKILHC

Sequence of 5-hydroxytryptamine receptor 1B (Rattus norvegicus, UniProt P28564) (P28564 whole entry): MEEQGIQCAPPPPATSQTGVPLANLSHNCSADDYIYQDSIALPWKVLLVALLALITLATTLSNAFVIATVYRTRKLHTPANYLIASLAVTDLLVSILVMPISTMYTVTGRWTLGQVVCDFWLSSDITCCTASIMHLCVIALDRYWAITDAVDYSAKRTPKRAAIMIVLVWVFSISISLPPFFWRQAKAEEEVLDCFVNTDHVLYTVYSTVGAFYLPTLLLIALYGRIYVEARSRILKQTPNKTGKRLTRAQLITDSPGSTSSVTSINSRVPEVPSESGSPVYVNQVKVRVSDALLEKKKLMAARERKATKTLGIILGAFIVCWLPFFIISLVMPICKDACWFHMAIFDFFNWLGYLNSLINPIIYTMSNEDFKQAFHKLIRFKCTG
Sequence of D(3) dopamine receptor (P19020 whole entry): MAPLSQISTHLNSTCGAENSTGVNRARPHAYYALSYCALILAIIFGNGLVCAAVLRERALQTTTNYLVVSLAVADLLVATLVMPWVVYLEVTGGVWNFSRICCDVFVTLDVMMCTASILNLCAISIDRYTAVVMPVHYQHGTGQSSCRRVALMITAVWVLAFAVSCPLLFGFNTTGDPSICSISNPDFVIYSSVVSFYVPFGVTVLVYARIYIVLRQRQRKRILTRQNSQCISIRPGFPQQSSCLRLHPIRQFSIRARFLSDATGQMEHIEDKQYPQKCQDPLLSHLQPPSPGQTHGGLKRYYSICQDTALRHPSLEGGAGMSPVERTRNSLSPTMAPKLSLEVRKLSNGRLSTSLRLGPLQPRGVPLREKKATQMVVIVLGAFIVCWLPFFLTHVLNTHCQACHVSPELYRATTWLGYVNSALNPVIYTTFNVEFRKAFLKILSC
Sequence of 5-hydroxytryptamine 1D receptor (Q8MI13 whole entry): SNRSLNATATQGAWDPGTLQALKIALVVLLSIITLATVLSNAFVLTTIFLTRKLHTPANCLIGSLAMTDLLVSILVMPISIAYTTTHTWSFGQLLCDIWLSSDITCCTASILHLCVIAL
Sequence of 5-hydroxytryptamine receptor 1B (Homo sapiens, UniProt P28222) (P28222 whole entry): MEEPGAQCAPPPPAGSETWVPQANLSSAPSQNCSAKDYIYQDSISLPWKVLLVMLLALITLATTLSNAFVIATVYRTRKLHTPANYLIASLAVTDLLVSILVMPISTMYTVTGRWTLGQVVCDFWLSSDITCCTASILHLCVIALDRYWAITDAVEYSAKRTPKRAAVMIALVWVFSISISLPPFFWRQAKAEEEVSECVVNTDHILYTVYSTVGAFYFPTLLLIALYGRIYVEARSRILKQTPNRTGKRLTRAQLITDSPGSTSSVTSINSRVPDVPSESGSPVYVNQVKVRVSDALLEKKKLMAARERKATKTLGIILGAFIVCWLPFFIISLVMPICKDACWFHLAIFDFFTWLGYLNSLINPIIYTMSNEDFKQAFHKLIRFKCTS
Sequence of 5-hydroxytryptamine receptor 2A (P14842 whole entry): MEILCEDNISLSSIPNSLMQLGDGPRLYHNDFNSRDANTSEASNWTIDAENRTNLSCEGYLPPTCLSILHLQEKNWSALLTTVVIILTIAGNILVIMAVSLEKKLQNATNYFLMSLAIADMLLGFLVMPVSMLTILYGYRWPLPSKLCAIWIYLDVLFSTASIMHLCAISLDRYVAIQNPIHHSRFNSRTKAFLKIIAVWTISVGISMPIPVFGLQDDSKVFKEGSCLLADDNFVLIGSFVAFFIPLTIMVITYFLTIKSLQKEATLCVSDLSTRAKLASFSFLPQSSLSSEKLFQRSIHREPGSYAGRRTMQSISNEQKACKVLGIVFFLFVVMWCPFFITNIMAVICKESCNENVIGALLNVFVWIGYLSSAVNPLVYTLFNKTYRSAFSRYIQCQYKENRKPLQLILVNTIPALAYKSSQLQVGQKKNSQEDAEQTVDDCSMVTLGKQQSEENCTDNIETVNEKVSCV
Sequence of D(1A) dopamine receptor (P18901 whole entry): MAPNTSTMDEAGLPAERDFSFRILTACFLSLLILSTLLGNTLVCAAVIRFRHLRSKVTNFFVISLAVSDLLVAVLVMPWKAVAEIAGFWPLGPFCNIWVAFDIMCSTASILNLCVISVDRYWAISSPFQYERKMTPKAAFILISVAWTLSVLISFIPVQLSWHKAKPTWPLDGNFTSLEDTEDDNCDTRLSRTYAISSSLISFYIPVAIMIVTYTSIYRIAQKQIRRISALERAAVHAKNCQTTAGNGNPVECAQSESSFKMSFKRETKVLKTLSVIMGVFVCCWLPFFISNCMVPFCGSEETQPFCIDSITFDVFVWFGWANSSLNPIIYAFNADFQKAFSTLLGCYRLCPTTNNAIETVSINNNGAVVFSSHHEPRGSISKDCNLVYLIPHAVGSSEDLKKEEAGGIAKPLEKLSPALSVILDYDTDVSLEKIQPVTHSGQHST

| Ki [2] | Ki [3] | Ki [4] | Ki [5] | Ki [6] | Ki [7] | Ki [8] | Ki [9] | Compound | Ki [1] |
| --- | --- | --- | --- | --- | --- | --- | --- | --- | --- |
| 47 nM | 510 nM | 0.22 nM | 117 nM | > 10000 nM | 13 nM | 23 nM | 3.5 nM and 3.9 nM and 6.7 nM and 4.6 nM | Cc1nc2n(c(=O)c1CCN1CCC(c3noc4cc(F)ccc34)CC1)CCCC2O (stereo not given) [9-OH-risperidone] | 3500 nM |
|  |  |  |  |  |  |  |  | Cc1nc2n(c(=O)c1CCN1CCC(c3noc4cc(F)ccc34)CC1)CCCC2 [3-{2-[4-(6-Fluoro-benzo[d]isoxazol-3-yl)-piperidin-1-yl]-ethyl}-2-methyl-6,7,8,9-tetrahydro-pyrido[1,2-a]pyrimidin-4-one(risperidone)] | 4000 nM |
